“And” between values parts separate entries of the source, which are not always exact repeats. Equal entries are not always repeated. Where two headings read alike, the source gives them in different places.
Legend:
[1] = system: HIV-1 reverse transcriptase with codon 215 and/or codon 219 substitution; settings: phenylalanine or tyrosine for threonine at codon 215, and/or glutamine for lysine at codon 219; cited from earlier work
[2] = target: T1, wild-type RT (Human immunodeficiency virus type 1 group M subtype B, UniProt P04585); experiment: Heteropolymeric RNA template RT hybridization assay, inhibition of wild-type RT (Example 2); type: biochemical, HIV-1
T1 construct: Wild-type and mutant RT genes of these clones were subcloned into a bacterial expression vector (pKRT2); made in house; host or cells: E. coli
Method: (§1) A template RNA was synthesized by in vitro transcription from linearized pSP72 plasmid DNA by performing the following steps:
(§2) 2. In vitro transcription with T7 RNA polymerase was performed by 2 hour incubation at 37° C. of a solution containing 50 μg/mL of the linearized DNA, 400 units/mL T7 RNA polymerase, 40 mM Tris-HCl buffer, pH 8.0, 6 mM MgCl2, 2 mM spermidine, 10 mM NaCl, 10 mM DTT, 0.5 mM rATP, 0.5 mM rGTP, 0.5 mM rCTP and 0.5 mM rUTP.
(§3) The following DNA oligonucleotide was synthesized on a DNA synthesizer employing standard methods:
(§4) The following probe oligonucleotides were synthesized on a DNA synthesizer and conjugated with biotin or horseradish peroxidase (HRP) employing standard methods.
(§5) 1. 10 μL of 1 N KOH was added to each tube and incubated at 37° C. for 15 minutes to hydrolyze the RNA.
(§6) 2. 10 μL of 1 N KH2 PO4 was added to each tube to neutralize the pH and […] of solution from each tube was transferred to a well of a streptavidin-coated microplate.
(§7) 3. 50 μL of the following solution was added to each well:
(§8) 4. The wells were covered with an adhesive plate cover and incubated at 37° C. for 2 hours.
(§9) 6. 100 μL of tetramethylbenzidine (TMB, SOMA) was added to each well and incubated for 1 hour at room temperature.
(§10) 7. 100 μL of TMB Stop Solution (SOMA) was added to each well and the absorbance (450 nm-650 nm) of the wells was read with a plate reader.
(§11) In this example, RT was obtained from E. coli expression systems as described below and was added to each tube in sufficient amount to give a significant signal (about 1-2 absorbance units) in the absence of drug. The same amount of RT was added to each tube. Both a wild-type and a codon 74 (ddI-resistant) mutant RT were tested. Molecular clones were constructed by site-directed mutagenesis to contain a mutation at codon 74, 215, and/or 219. Mutants at codon 74 are resistant to ddI. Wild-type and mutant RT genes of these clones were subcloned into a bacterial expression vector (pKRT2). Bacterial lysates containing recombinant expressed RT, both wild-type and mutant, were made as previously described (D'Aquila, R. T. and Summers, W. C. (1989) JAIDS 2:579-587). The IC50 was determined by computerized estimation (Systat version 5.1) of the median-effect equation: fractional reduction=1/[1+(IC50/drug concentration)^m ]. Each IC50 is the mean of 5-10 experiments. Results of a one-tailed Mann-Whitney U test for the difference between mean wild-type and mutant IC50s: p<0.005.
(§12) An amount of ddATP (the active form of ddI) varying from 0.0005 to 0.250 mM was added to various tubes containing 40 μL of the following solution:
(§13) In this example, the dNTP concentrations were the same as described in Example 1 above.
(§14) These tubes were incubated at 37° C. for 1 hour to allow the synthesis of cDNA. […]

[3] = target: T2, codon 74 (ddI-resistant) mutant RT (Human immunodeficiency virus type 1 group M subtype B, UniProt P04585, L661V); experiment: Heteropolymeric RNA template RT hybridization assay, inhibition of codon 74 mutant RT (Example 2); type: biochemical, HIV-1
T2 construct: Wild-type and mutant RT genes of these clones were subcloned into a bacterial expression vector (pKRT2); made in house; host or cells: E. coli
Method: as §1, §2, §3, §4, §5, §6, §7, §8, §9, §10, §11, §12, §13, §14

[4] = system: triple mutant RT (74/215/219); experiment: Heteropolymeric RNA template RT hybridization assay, inhibition of triple mutant RT 74/215/219 (Example 2); type: biochemical, HIV-1; settings: 74/215/219 mutant RT; single determinations; read-out: IC50 (multiple determinations)
Method: as §11, §12, §13, §14

[5] = system: AMV RT; experiment: Heteropolymeric RNA template RT hybridization assay, inhibition of AMV RT (Example 3); type: biochemical, avian myeloblastosis virus; settings: for Absorbance (450 nm-650 nm): no-drug absorbance 3.760
Method: as §5, §6, §7, §8, §9, §10
Same as described in Example 1 above.
AMV RT (Du Pont) was used as a model to illustrate use of the method of the present invention for detecting and/or quantitating the ability of a compound to inhibit RT activity. AMV RT was added to give tubes containing 40 μL of the following solution:
These reaction conditions were similar to those of Example 1 above except with respect to the addition of the inhibitor, the lower dNTP concentration (0.001 mM instead of 0.5 mM) and the increased amount of RT (200 mU instead of 5 mU). Reducing the dNTPs decreases the signal in the assay, but increasing the RT increases the signal. The reduced dNTP concentration helps to make the assay more sensitive to inhibitors which act competitively with the dNTPs and, thus, less inhibitor is needed to achieve the effect. By adding more inhibitor, the same results can be obtained at higher dNTP concentrations.
The tubes were incubated at 37° C. for 1 hour to allow the synthesis of cDNA.
Same as for Example 1 described above.

[6] = system: HIV-1 reverse transcriptase with valine for leucine at codon 74; settings: valine for the wild-type leucine at codon 74; cited from earlier work

Cc1cn([C@H]2C[C@H](N=[N+]=[N-])[C@@H](CO)O2)c(=O)[nH]c1=O [AZT, zidovudine]
resistance of the RT to the drug [1]: leads to resistance to AZT

Nc1ncnc2c1ncn2[C@H]1CC[C@@H](COP(=O)(O)OP(=O)(O)OP(=O)(O)O)O1 [ddATP]
IC50 ([2]; 10 cases, 0.5 mM dNTPs, read-out: Maximum (IC50)): 8.7 µM
IC50 ([2]; 10 cases, 0.5 mM dNTPs, read-out: Minimum (IC50)): 3.1 µM
IC50 ([2]; mean of 10 cases, 0.5 mM dNTPs, wild-type vs mutant p<0.005, read-out: Mean (IC50)): 6.79 µM
IC50 ([2]; single determinations, read-out: IC50 (multiple determinations)): 8.6 µM and 6.7 µM and 7.8 µM and 4.9 µM and 5.7 µM
IC50 ([3]; 74 mutant RT, single determinations, read-out: IC50 (multiple determinations)): 13.2 µM and 16.6 µM and 13.4 µM
IC50 ([3]; Mutant 74 RT, 5 cases, 0.5 mM dNTPs, read-out: Maximum (IC50)): 29.4 µM
IC50 ([3]; Mutant 74 RT, 5 cases, 0.5 mM dNTPs, read-out: Minimum (IC50)): 11.1 µM
IC50 ([3]; Mutant 74 RT, mean of 5 cases, 0.5 mM dNTPs, wild-type vs mutant p<0.005, read-out: Mean (IC50)): 16.9 µM
IC50 [4]: 79.3 µM
Absorbance (450 nm-650 nm) ([5]; ddATP 0.0001 mM): 3.593
Absorbance (450 nm-650 nm) ([5]; ddATP 0.00025 mM): 2.984
Absorbance (450 nm-650 nm) ([5]; ddATP 0.0005 mM): 2.079
Absorbance (450 nm-650 nm) ([5]; ddATP 0.0010 mM): 1.365
Absorbance (450 nm-650 nm) ([5]; ddATP 0.0025 mM): 0.350
Absorbance (450 nm-650 nm) ([5]; ddATP 0.0050 mM): 0.197
Absorbance (450 nm-650 nm) ([5]; ddATP 0.0100 mM): 0.224

O=c1[nH]cnc2c1ncn2[C@H]1CC[C@@H](CO)O1 [ddI]
resistance of the RT to the drug [6]: leads to ddI resistance

O=C(O)P(=O)(O)O [fosgarnet]
inhibition detected and/or quantitated ([5]; similar experiment, non-nucleoside RT inhibitor): could also be detected and/or quantitated
